Results reported in US20050164929A1, “Methods of preventing and treating inflammatory bowel disease” (LUPINE LOGIC, INC., priority 2000, published 2005).

How the values were obtained:
[1] = system: NIH 3T3 murine embryonic lung fibroblasts; assay: BrdU incorporation (Studies L-117.01/02); type: cell-based, mouse; conditions: NIH 3T3, BrdU
Method: FIG. 19. […] Serum starved NIH 3T3 cells were treated with purified CG53135-01 (CG53135 in figure), 10% serum or vehicle only (control). DNA synthesis was measured in triplicate for each sample, using a BrdU incorporation assay. Data points represent average BrdU incorporation and bars represent standard error (SE).
(§1) Heterologous Protein Expression: CG53135-01 (batch 4A and 6) was used in these experiments. Protein was expressed using Escherichia coli (E. coli), BL21 (Novagen, Madison, Wis.), transformed with full-length CG53135-01 in a pETMY-hFGF20X/BL21 expression vector. Cells were harvested and disrupted, and then the soluble protein fraction was clarified by filtration and passed through a metal chelation column. The final protein fraction was dialyzed against phosphate buffered saline (PBS) plus 1 M L-arginine. Protein samples were stored at −70° C.
BrdU Incorporation: proliferative activity was measured by treatment of serum-starved cultured cells with a given agent and measurement of BrdU incorporation during DNA synthesis. Cells were cultured in respective manufacturer recommended basal growth medium supplemented with 10% fetal bovine serum or 10% calf serum as per manufacturer recommendations. Cells were grown in 96-well plates to confluence at 37° C. in 10% CO2/air (to subconfluence at 5% CO2 for dedifferentiated chondrocytes and NHOst). […]

[2] = system: human umbilical vein endothelial cells; assay: Cell survival and BrdU incorporation in endothelial cells; type: cell-based; conditions: HUVEC
Method: (§2) BrdU Incorporation: proliferative activity was measured by treatment of serum-starved cultured cells with a given agent and measurement of BrdU incorporation during DNA synthesis. Cells were cultured in respective manufacturer recommended basal growth medium supplemented with 10% fetal bovine serum or 10% calf serum as per manufacturer recommendations. Cells were grown in 96-well plates to confluence at 37° C. in 10% CO2/air (to subconfluence at 5% CO2 for dedifferentiated chondrocytes and NHOst). Cells were then starved in respective basal growth medium for 24-72 hours. CG53135 protein purified from E. coli or pCEP4/Sec or pCEP4/Sec-FGF 20× enriched conditioned medium was added (10 μL/100 μL of culture) for 18 hours. BrdU (10 μM final concentration) was then added and incubated with the cells for 5 hours. BrdU incorporation was assayed according to the manufacturer's specifications (Roche Molecular Biochemicals, Indianapolis, Ind.).
(§3) Effects of CG53135 on Endothelial Cells: protein therapeutic agents may inhibit or promote angiogenesis, the process through which endothelial cells differentiate into capillaries. Because CG53135 belongs to the fibroblast growth factor family, some members of which have angiogenic properties, the antiangiogenic or pro-angiogenic effects of CG53135 on endothelial cell lines were evaluated. The following cell lines were chosen because they are cell types used in understanding angiogenesis in cancer: HUVEC (human umbilical vein endothelial cells), BAEC (bovine aortic endothelial cells), HMVEC-d (human endothelial, dermal capillary). These endothelial cell types undergo morphogenic differentiation and are representative of large vessel (HUVEC, BAEC) as well as capillary endothelial cells (HMVEC-d).

[3] = system: human dermal microvascular endothelial cells; assay: as above; type: cell-based; conditions: HMVEC-d
Method: as §2, §3

[4] = system: bovine aortic endothelial cells; assay: as above; type: cell-based; conditions: BAEC
Method: as §2, §3

[5] = system: human coronary artery smooth muscle cells; assay: BrdU incorporation (Studies L-117.01/02); type: cell-based
Text: as §1, §2

[6] = system: human pulmonary artery smooth muscle cells; assay: BrdU incorporation (Studies L-117.01/02); type: cell-based
Text: as §1, §2

[7] = system: Jurkat, an acute T-lymphoblastic leukemia cell line; assay: BrdU incorporation (Studies L-117.01/02); type: cell-based
Text: as §1, §2

[8] = system: CCD-1070Sk normal human foreskin fibroblasts; assay: BrdU incorporation (Studies L-117.01/02); type: cell-based
Text: as §1, §2

[9] = system: Balb MK mouse keratinocytes; assay: BrdU incorporation (Studies L-117.01/02); type: cell-based
Text: as §1, §2

[10] = system: CCD 1106 KERTr human keratinocytes; assay: BrdU incorporation (Studies L-117.01/02); type: cell-based
Text: as §1, §2

[11] = system: primary human osteoblasts (NHOst); assay: BrdU incorporation (Studies L-117.01/02); type: cell-based
Text: as §1, §2

[12] = system: human aorta smooth muscle cells (HSMC); assay: BrdU incorporation (Studies L-117.01/02); type: cell-based
Text: as §1, §2

[13] = system: TF-1, an erythroblastic leukemia cell line; assay: BrdU incorporation (Studies L-117.01/02); type: cell-based
Text: as §1, §2

[14] = system: mouse skeletal muscle cells; assay: BrdU incorporation (Studies L-117.01/02); type: cell-based
Text: as §1, §2

[15] = system: rabbit synoviocyte cell line, HIG-82; assay: BrdU incorporation (Studies L-117.01/02); type: cell-based
Text: as §1, §2

[16] = system: NIH 3T3 cells; assay: Growth assay (cell count); type: cell-based, mouse; conditions: 1 μg, 48 hours
Method: FIG. 20. CG53135 stimulates Growth of NIH 3T3 Fibroblasts. Duplicate wells of serum starved NIH 3T3 cells were treated for […] with purified CG53135-01 (1 ug) or vehicle control. Cell counts for each well were determined in duplicate. Y— axis identifies cell number, which is the average of 4 cell counts (treatment duplicates×duplicate counts) and standard error (SE).
Growth Assay: growth activity was obtained by measuring cell number following treatment of cultured cells with a given agent for a specified period of time. In general, cells grown to ˜20% confluency in 6-well dishes were treated with basal medium supplemented with CG53135 or control, incubated for several days, trypsinized and counted using a Coulter Z1 Particle Counter.
To determine if recombinant CG53135-01 sustained cell growth, NIH 3T3 cells were cultured with 1 μg CG53135-01 or control for 48 hours and then counted (FIG. 20). CG53135 induced an approximately 2-fold increase in cell number relative to control in this assay.

[17] = system: breast epithelial cell line, B5589; assay: BrdU incorporation (Studies L-117.01/02); type: cell-based, human
Text: as §1
as §2, with “BrdU incorporation was assayed according to the manufacturer's specifications (Roche Molecular Biochemicals, Indianapolis, Ind.).” left out

[18] = system: MG-63 osteosarcoma cell line; assay: BrdU incorporation (Studies L-117.01/02); type: cell-based, human
Text: as §1
as §2, with “BrdU incorporation was assayed according to the manufacturer's specifications (Roche Molecular Biochemicals, Indianapolis, Ind.).” left out

[19] = system: mesenchymal and epithelial cells; assay: Proliferation summary for variants; type: cell-based; conditions: in vitro
Method: (§4) Experiments were performed to evaluate the proliferative response of representative cell types to CG53135, e.g., a full-length tagged variant (CG53135-01), a deletion variant (CG53135-02), and a full-length codon-optimized untagged variant (CG53135-05).
(§5) CG53135-02 (batch 1 and 13) was also used in these experiments. Protein was expressed in E. coli, BLR (DE3) (Novagen), transformed with the deletion variant CG53135-02 inserted into a pET24a vector (Novagen). A research cell bank (RCB) was produced and cell paste containing CG53135-02 was produced by fermentation of cells originating from the RCB. Cell membranes were disrupted by high-pressure homogenization, and lysate was clarified by centrifugation. CG53135-02 was purified by ion exchange chromatography. The final protein fraction was dialyzed against the formulation buffer (100 mM citrate, 1 mM ethylenediaminetetraacetic acid (EDTA), and 1 M L-arginine).
(§6) CG53135-05, DEV10, which were also used in these experiments, was prepared by Cambrex Biosciences (Hopkinton, Mass.) according to Process 1 as described in Section 6.18.1, infra.
as §2
(§7) The above described experiments were also performed using CG53135-02 and CG53135-05 protein products, and the results are summarized in the Conclusion section below.

[20] = system: endothelial cells; assay: Proliferation summary for variants; type: cell-based; conditions: in vitro
Method: as §4, §5, §6, §2, §7

[21] = system: HUVECS; assay: Tube formation; type: cell-based, human; conditions: HUVEC
[22] = system: HUVECS; assay: VEGF induced cell migration; type: cell-based, human; conditions: HUVEC

For “CG53135-01: FGF-20 wild type, stop codon removed; SEQ ID NOs 1 and 2; expressed as tagged full-length variant”, the “half maximal concentration for induction of DNA synthesis” value [1] was roughly 10 ng/mL, the “induction of DNA synthesis” value [1] was “dose-dependent manner” and the “cell survival and BrdU incorporation” value [2] was “did not alter cell survival or have stimulatory effects on BrdU incorporation”. For the same substance, the “cell survival and BrdU incorporation” value [3] was “did not alter cell survival or have stimulatory effects on BrdU incorporation”, the “cell survival and BrdU incorporation” value [4] was “did not alter cell survival or have stimulatory effects on BrdU incorporation” and the “induction of DNA synthesis” value [5] was “did not induce any significant increase in DNA synthesis”. The “induction of DNA synthesis” value [6] was “did not induce any significant increase in DNA synthesis”, the BrdU incorporation response [7] was “did not show any response” and the “induction of DNA synthesis” value [8] was “induced DNA synthesis”. For the same substance, the “induction of DNA synthesis” value [9] was “induced DNA synthesis”, the “induction of DNA synthesis” value [10] was “induced DNA synthesis” and the “induction of DNA synthesis” value [11] was “did not induce any significant increase in DNA synthesis”. The “induction of DNA synthesis” value [12] was “did not induce any significant increase in DNA synthesis”, the “effect on DNA synthesis” value [13] was “no stimulatory effect” and the “induction of DNA synthesis” value [14] was “did not induce any significant increase in DNA synthesis”. For the same substance, the “induction of DNA synthesis” value [15] was “induced DNA synthesis”, the “increase in cell number relative to control” value [16] was “approximately 2 fold” and the “induction of DNA synthesis” value [17] was “induced DNA synthesis”. The “induction of DNA synthesis” value [18] was “induced DNA synthesis”, the “proliferation of mesenchymal and epithelial cells” value [19] was “induces a proliferative response” and the “proliferation of endothelial cells” value [20] was “not”. The tube formation [21] was “did not inhibit tube formation” and the “VEGF induced cell migration” value [22] was “had no effect”.
